The target of one series is SRC (Homo sapiens, UniProt P12931). As to the kind of experiment: biochemical. The source says: (§1) An ELISA-based assay was used in which the phosphorylation of an oligopeptide substrate was detected by an HRP-conjugated anti-p-Tyr (PY20) probe.
A further series addresses ABL (Homo sapiens, UniProt P00519). The series can be described thus: QuickScout ELISA kinase panel. On the set-up: purchased Carna Biosciences (QuickScout service). Format: biochemical.
Excerpt: as §1

The next series has as its target T1, EphA2 (Homo sapiens, UniProt P29317).
T1 construct: purchased Carna Biosciences (QuickScout service)
The series can be described thus: QuickScout ELISA kinase panel. Format: biochemical. The conditions noted are these: Compound 5 at 10 nM. The source says: (§2) . […] An ELISA-based assay was used in which the phosphorylation of an oligopeptide substrate was detected by an HRP-conjugated anti-p-Tyr (PY20) probe. […]. The data appears in Table 2 in Example 3.

The next series has as its target T2, JAK3 (Homo sapiens, UniProt P52333).
T2 construct: purchased Carna Biosciences (QuickScout service)
As to the kind of experiment: QuickScout ELISA kinase panel. Format: biochemical. The settings on record: Compound 5 at 10 nM.
Excerpt: as §2

The target in another series is T3, TEC (Homo sapiens, UniProt P42680).
T3 construct: purchased Carna Biosciences (Kobe, Japan), QuickScout service
T3 sequence (P42680 1-631): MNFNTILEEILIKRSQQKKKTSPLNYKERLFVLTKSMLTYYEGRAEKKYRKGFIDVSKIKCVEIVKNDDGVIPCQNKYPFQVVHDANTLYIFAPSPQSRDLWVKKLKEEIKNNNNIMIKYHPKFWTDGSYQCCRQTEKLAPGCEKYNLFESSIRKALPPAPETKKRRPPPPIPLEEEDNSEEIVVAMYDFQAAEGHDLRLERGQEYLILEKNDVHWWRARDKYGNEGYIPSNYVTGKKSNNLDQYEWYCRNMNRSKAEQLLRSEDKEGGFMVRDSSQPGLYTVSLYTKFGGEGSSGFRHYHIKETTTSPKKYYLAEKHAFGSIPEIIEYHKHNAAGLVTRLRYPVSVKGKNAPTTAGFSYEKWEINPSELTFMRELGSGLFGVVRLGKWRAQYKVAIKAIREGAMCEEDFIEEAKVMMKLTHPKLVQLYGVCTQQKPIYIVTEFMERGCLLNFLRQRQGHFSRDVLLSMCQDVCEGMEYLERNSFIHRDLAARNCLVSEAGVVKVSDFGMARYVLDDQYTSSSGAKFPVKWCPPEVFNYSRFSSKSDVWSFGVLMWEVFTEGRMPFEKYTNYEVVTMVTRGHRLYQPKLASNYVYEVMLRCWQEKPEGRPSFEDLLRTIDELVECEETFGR
The series can be described thus: QuickScout ELISA kinase panel. The conditions noted are these: Compound 5 at 10 nM. Format: biochemical.
Excerpt: as §2

The target of another series is T4, TYRO3 (Homo sapiens, UniProt Q06418).
T4 construct: purchased Carna Biosciences (QuickScout service)
The series can be described thus: QuickScout ELISA kinase panel. The settings on record: Compound 5 at 10 nM. Format: biochemical.
Excerpt: as §2

The next series addresses T5, MET (Homo sapiens, UniProt P08581).
T5 construct: purchased Carna Biosciences (QuickScout service)
As to the kind of experiment: QuickScout ELISA kinase panel. Format: biochemical. The conditions noted are these: Compound 5 at 10 nM.
Excerpt: as §2

The target in a further series is T6, CSK (Homo sapiens, UniProt P41240).
T6 construct: purchased Carna Biosciences (QuickScout service)
As to the kind of experiment: QuickScout ELISA kinase panel. Format: biochemical. The conditions noted are these: Compound 5 at 10 nM.
Excerpt: as §2

The target of a further series is T7, FLT3 (Homo sapiens, UniProt P36888).
T7 construct: purchased Carna Biosciences (Kobe, Japan), QuickScout service
As to the kind of experiment: QuickScout ELISA kinase panel. The conditions noted are these: Compound 5 at 10 nM. Format: biochemical.
Excerpt: as §2

The next series addresses T8, 1% bovine serum albumin (Bos taurus, UniProt P02769).
T8 construct: from tissue; host or cells: bovine serum (from the protein's name)
The series can be described thus: Protein binding assay, BSA. Format: in vitro ADME. The protocol: Protein binding of the radiotracers were determined adding 37 kBq (1 μCi) of each radioligand to samples of 1% bovine serum albumin and 1 mL of fresh human serum. The protein was precipitated by adding 1 mL of ice cold 20% trichloroacetic acid and the suspension centrifuged and washing with 1 mL of 20% ice cold trichloroacetic acid. The protein pellets and supernatants were counted in a gamma counter to determine the protein binding of the radioligands.

Where only a bound is given, the exact number is not on record here.

ABL, sequence (P00519 whole entry): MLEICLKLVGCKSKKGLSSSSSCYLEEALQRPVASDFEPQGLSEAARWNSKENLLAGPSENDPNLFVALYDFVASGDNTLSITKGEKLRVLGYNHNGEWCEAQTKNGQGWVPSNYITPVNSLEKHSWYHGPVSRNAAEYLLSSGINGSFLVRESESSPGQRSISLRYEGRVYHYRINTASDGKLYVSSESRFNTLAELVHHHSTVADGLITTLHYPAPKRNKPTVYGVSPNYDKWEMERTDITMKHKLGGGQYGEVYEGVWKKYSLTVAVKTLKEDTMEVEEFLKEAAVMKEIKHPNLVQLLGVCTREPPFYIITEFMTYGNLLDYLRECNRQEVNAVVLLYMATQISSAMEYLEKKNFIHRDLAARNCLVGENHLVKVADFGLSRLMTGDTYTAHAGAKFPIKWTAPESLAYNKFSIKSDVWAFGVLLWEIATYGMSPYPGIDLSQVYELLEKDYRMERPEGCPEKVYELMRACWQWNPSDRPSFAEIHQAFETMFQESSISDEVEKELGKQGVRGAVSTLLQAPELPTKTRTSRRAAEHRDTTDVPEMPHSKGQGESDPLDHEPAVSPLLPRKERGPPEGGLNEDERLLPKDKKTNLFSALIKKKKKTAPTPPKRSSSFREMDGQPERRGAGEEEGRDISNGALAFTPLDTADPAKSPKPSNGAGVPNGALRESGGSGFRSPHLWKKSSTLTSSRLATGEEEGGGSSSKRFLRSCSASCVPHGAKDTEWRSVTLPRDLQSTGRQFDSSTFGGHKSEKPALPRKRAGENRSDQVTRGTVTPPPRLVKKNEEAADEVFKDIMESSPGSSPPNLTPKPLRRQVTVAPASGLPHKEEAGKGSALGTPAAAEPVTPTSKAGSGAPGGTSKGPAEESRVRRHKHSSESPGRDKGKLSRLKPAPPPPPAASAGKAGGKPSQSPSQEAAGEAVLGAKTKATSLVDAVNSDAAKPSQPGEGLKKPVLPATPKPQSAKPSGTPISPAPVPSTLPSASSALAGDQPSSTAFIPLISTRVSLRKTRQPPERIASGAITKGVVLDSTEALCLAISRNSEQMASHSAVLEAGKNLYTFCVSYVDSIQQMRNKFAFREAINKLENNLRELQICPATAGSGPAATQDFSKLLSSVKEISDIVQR
SRC, sequence (P12931 whole entry): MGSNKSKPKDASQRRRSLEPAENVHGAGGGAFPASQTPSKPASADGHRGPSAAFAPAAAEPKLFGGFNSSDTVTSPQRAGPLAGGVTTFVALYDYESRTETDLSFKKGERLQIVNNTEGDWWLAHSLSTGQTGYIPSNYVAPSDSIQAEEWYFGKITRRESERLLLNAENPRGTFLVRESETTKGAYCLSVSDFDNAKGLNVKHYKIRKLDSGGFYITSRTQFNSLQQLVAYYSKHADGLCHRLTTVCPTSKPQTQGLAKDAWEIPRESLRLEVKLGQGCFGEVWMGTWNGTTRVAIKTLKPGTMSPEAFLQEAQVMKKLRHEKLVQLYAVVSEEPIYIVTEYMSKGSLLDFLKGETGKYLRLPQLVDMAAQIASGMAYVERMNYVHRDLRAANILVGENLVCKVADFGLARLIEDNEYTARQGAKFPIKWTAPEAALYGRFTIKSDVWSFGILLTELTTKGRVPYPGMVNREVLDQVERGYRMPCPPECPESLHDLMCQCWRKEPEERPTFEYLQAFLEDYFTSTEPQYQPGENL
T7 sequence (P36888 27-993): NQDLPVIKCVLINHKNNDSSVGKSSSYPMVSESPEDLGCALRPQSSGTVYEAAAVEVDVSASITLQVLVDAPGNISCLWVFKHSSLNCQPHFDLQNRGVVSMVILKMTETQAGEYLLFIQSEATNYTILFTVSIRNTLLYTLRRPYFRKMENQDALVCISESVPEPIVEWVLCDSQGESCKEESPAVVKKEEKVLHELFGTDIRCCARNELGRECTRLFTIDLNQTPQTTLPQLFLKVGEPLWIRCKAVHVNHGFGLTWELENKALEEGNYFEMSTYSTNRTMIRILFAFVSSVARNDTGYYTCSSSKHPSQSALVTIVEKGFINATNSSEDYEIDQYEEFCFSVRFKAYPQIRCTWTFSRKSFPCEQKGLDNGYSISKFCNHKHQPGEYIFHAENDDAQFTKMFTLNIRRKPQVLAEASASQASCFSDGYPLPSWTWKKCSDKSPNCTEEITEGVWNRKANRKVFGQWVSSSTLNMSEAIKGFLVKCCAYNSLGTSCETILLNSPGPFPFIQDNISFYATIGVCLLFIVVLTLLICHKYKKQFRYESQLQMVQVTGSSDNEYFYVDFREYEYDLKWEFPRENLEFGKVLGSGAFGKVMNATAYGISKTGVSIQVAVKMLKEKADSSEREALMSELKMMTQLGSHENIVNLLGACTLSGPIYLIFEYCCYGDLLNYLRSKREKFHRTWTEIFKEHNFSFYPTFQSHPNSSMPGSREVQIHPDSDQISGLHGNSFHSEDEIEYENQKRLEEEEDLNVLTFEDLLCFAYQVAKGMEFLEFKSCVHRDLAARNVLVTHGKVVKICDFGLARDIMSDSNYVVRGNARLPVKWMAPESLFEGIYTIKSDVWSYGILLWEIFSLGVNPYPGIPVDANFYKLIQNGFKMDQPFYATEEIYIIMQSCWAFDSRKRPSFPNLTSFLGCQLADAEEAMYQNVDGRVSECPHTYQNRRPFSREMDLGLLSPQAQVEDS
T4 sequence (Q06418 41-890): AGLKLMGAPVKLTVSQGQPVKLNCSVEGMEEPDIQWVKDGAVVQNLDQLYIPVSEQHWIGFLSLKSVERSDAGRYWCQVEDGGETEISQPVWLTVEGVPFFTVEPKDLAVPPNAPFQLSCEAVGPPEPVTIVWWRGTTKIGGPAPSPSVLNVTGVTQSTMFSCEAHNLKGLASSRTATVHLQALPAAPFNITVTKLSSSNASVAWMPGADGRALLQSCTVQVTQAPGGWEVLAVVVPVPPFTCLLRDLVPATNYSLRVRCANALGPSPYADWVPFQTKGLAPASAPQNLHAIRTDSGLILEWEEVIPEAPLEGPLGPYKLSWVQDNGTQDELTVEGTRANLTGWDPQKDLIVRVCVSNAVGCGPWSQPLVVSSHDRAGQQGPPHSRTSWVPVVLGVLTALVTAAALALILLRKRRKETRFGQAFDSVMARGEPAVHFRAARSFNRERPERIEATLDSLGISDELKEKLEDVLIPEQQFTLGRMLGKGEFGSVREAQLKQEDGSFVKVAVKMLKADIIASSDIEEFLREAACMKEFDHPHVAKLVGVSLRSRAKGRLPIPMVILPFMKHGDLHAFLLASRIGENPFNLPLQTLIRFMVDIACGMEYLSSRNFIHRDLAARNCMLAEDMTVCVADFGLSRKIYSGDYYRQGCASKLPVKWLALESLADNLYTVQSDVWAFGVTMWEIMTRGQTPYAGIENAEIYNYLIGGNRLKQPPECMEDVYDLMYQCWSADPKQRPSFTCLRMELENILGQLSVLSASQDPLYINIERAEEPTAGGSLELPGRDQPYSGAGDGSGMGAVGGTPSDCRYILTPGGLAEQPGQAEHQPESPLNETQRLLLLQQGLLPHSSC
T5 sequence (P08581 25-1390): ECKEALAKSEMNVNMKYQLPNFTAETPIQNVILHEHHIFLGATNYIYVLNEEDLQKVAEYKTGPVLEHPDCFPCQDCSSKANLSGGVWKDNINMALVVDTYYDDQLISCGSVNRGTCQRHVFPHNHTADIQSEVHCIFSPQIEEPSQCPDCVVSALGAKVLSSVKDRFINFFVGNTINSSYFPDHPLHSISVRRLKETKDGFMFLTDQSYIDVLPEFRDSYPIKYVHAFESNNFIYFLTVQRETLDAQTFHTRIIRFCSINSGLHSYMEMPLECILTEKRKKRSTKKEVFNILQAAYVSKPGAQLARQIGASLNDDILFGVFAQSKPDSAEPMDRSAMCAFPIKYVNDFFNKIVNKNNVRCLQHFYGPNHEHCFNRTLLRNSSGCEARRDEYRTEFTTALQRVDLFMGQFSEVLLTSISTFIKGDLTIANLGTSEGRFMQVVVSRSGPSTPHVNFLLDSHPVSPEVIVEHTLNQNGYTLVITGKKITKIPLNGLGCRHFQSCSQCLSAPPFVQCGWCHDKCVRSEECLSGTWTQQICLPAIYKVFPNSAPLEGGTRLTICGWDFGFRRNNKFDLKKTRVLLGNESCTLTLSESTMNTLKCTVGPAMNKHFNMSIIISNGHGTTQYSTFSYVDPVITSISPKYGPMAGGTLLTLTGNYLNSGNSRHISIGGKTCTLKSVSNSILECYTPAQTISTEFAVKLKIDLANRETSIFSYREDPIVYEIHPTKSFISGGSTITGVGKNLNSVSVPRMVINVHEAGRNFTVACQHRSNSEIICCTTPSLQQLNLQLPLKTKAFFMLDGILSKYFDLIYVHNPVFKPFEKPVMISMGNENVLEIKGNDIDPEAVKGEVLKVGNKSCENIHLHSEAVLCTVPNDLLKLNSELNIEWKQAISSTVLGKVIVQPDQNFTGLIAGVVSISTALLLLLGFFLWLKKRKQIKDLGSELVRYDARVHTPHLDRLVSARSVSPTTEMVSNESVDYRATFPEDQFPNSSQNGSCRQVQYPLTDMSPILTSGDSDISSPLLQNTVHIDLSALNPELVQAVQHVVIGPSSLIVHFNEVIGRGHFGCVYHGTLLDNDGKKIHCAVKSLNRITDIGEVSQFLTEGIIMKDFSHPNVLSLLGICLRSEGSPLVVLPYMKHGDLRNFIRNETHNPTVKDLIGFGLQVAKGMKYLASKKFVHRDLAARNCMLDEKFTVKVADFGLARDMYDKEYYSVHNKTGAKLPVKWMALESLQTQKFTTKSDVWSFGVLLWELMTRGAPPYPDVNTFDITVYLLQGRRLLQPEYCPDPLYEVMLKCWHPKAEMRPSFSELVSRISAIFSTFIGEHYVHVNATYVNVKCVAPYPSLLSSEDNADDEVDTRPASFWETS

Take `Cc1nc(Nc2ncc(C(=O)Nc3c(C)cccc3Cl)s2)cc(N2CCN(CCF)CC2)n1` [Compound 5, N-(2-Chloro-6-methylphenyl)-2-(6-(4-(2-fluoroethyl)piperazin-1-yl)-2-methylpyrimidin-4-ylamino)thiazole-5-carboxamide]: the IC50 against SRC and on ABL was < 2 nM in each case. Also, on SRC (Compound 5 at 10 nM, 0.01 µM), the “% Inhibition of Kinase Activity, SRC” value was 97.5%. The inhibition at 0.01 µM at SRC (read-out: % Inhibition of Kinase Activity, SRC, Compound 5 at 10 nM) was > 97%; at ABL (Compound 5 at 10 nM) it was > 97%; against EphA2 it was 98.1%; on JAK3, 16%; at TEC, 98.1%; on TYRO3, 23.1%. Moreover, the inhibition at 0.01 µM was 7.2% against MET, 95.2% against CSK and 0.3% at FLT3. Moreover, the “% Inhibition of Kinase Activity, ABL” value at ABL (Compound 5 at 10 nM, 0.01 µM) stood at 99.4%. Besides, the “protein bound in 1% BSA” value on 1% bovine serum albumin worked out at 99.0±0.3%.

The values are drawn from US20100226853A1 (priority 2007, published 2010).
